The subject of one data set is AIA DA rats. The data set is described as follows: Treatment of RA in an AIA rat model with an experimental substance; serum metabolite profile by GC/TOFMS and OPLS-DA. The data set is classed as in vivo, Dark Agouti (DA) rats. Particulars: treated vs untreated; for regulation of endogenous metabolite levels in treated animals (OPLS-DA loadings): FIG. 7B. The text has this:
Treatment of RA in an AIA Rat Model with an Experimental Substance (Arginine)
AIA was induced in three Dark Agouti (DA) rats and the rats were then given treatment with an experimental substance.
The rat model samples used consist of the following blood samples: • 3 samples from AIA DA rats • 4 samples (one of the rats was sampled twice) from AIA DA rats treated with the experimental substance. Extraction of Metabolites from Serum
(§1) Extraction of metabolites from serum samples was essentially performed as the method described by A et al. (2005). 630 μl of MeOH:H2O (9:1 V:V) including internal standards was added to 70 μl of serum. The solution was vortex mixed for 10 s, kept on ice for 10 min, and then vigorously extracted at a frequency of 30 Hz for 3 min using a MM301 vibration Mill (Retsch GmbH & Co. KG, Haan, Germany. After […] on ice, the samples were centrifuged at 19 600 g for 10 min at 4° C. 200 μl of the supernatant was transferred to a GC vial, and 50 μl was transferred to a LC/MS vial and evaporated to dryness.
Prior GC/MS analysis the samples were derivatised with 30 μL of methoxyamine hydrochloride (15 mg mL-1) in pyridine by shaking for 10 min at 5° C., then incubating them for 16 h at room temperature. The samples were then trimethylsilylated by adding 30 μL of […] (MSTFA) with 1% TMCS and incubating them for 1 h at room temperature. After silylation, 30 μL of heptane (containing 0.5 μg methyl stearate as internal standard) was added. 0.1 μl of derivatized sample was injected split less by an Agilent 7683 Series Autosampler (Agilent, Atlanta; GA, USA) into an Agilent 6980 GC equipped with a 10 m×0.18 mm ID, fused silica capillary column chemically bonded with 0.18 μm DB5-MS stationary phase (J&W Scientific, Folsom, Calif., USA). The injector temperature was set at 270° C. Helium was used as carrier gas at a constant flow rate of 1 ml/min through the column. For every analysis, the purge time was set to 60 s at a purge flow rate of 20 ml min-1 and an equilibration time of 1 min. […]

A further data set has as its system AIA Lewis rats. The data set is described as follows: Treatment study of the active compound in AIA Lewis rats; serum metabolite profile by GC/TOFMS and OPLS. The class given is in vivo. Particulars: 1 mg, 3 mg or 10 mg active compound.
Source text: This example illustrates the potency of the active compound and its therapeutically active acid addition salts for treatment of […].
AIA was induced in a total of 21 Lewis rats were included in the treatment study. Samples used consist of the following blood samples: • 22 samples from AIA Lewis rats (one of the rats was sampled twice) • 26 samples from treated AIA Lewis rats (five of the rats was sampled twice)
Different treatments were distributed in the AIA subjects as follows: • 5 subjects received 1 mg active compound • 5 subjects received 3 mg active compound • 6 subjects received 10 mg active compound • 5 subjects received 1 mg methotrexate Extraction of Metabolites from Serum
as §1
GC/TOFMS analysis and the Data processing of MS-data was carried out as in Example 1 above.

The structures appear in SMILES notation.

Here are results for 2 molecules from US20120108668A1, “METABOLIC PROFILES” (priority 2009, published 2012).

With `N=C(N)NCCC[C@H](N)C(=O)O` [experimental substance, Arginine], in the data set on AIA DA rats (FIG. 7A), the “separation of untreated and treated AIA animals in the OPLS-DA scores scatter plot (patterns of endogenous metabolites)” value was “well separated”. Also, the “regulation of endogenous metabolite levels in treated animals (OPLS-DA loadings)” value in the data set on AIA DA rats is “Almost all metabolites are up regulated”; in the data set on AIA DA rats (listed as administered substance), “up regulation of many of the metabolites”.

One may read the melting point as the temperature, or range, at which the solid turns liquid. Turning to `COc1ccc(C=NNC(=N)N)c(Cl)c1OC` [active compound, N-(2-chloro-3,4-dimethoxybenzylideneamino)guanidine], the melting point lay in the range of 198 to 200 °C. In the data set with AIA Lewis rats, the “levels of the metabolites associated with AD, effect of treatment” value is “significantly affected”.
